Experimental data as given in patent US10689381B2 (priority 2017, dated 2020).
Read-outs that look alike come from different tables or passages of the source.

What was measured:
cells = type: cell-based, human; settings: range over L1210 and HCT116, stated in text; read-out: IC50 against vinblastine-sensitive cell lines
Summary of the method: (§1)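 Cells seeded at 30,000 cells/mL in DMEM with 10% FBS, then exposed for 72 h to compound at six concentrations spanning 0–1000 nM or 0–10000 nM, in duplicate. Final incubation at 37 °C lasted 5 min for L1210 and 15 min for HCT116.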

HCT116 [1] = assay: cells; type: cell-based, human; settings: for potency relative to vinblastine (less potent / reduced activity): vinblastine-sensitive cell lines
Summary of the method: as §1

L1210 [2] = assay: cells; type: cell-based, mouse
Summary of the method: as §1

L1210 [3] = settings: Table 1, footnote b: Reported in ref. 41; cited from earlier work
A549-T24 = assay: cells; type: cell-based, human
Description: (§2) 2001, 98:11737; Kavallaris et al., Brit. J. Cancer. 1999, 80:1020; and Kavallaris et al., J. Clin. Invest. 1997, 100:1282]. As a result, the comparison of cell growth inhibition of candidate drugs against A549 vs A549-T24 has been used to characterize potential resistance due to increased expression of class III β-tubulin [Goncalves et al., Proc. Natl. Acad. Sci. USA. 2001, 98:11737; Kavallaris et al., Brit. J. Cancer. 1999, 80:1020; and Kavallaris et al., J. Clin. Invest. 1997, 100:1282].

A549 = assay: cells; type: cell-based, human; settings: read-out: IC50 A549
Description: as §2

HCT116 [4] = settings: cited from earlier work; for IC50: Table 1, footnote b: Reported in ref. 41
HCT116/VM46 = assay: cells; type: cell-based, human; settings: for differential in activity between sensitive and resistant HCT116 cell lines: HCT116/VM46 vs HCT116
Procedure: Compounds were tested for their cell growth inhibition of L1210 (ATCC no. CCL-219, mouse lymphocytic leukemia), HCT116 (ATCC no. CCL-247, human colorectal carcinoma), and HCT116/VM46 (a vinblastine-resistant strain of HCT116) cells in culture. A population of cells (>1×10^6 cells/mL as determined with a hemocytometer) was diluted with Dulbecco's Modified Eagle Medium (DMEM, Gibco) containing 10% fetal bovine serum (FBS, Gibco) to give a final concentration of 30,000 cells/mL. To each well of a 96-well plate (Corning® Costar®) was added 100 μL of the cell media solution with a multichannel pipet. The cultures were incubated at 37° C. in an atmosphere of 5% CO2 and 95% humidified air for 24 hours.
The test compounds were then added to the plate as follows: test compounds were diluted in DMSO to a concentration of 1 mM. 10-Fold serial dilutions in DMSO were next performed on a separate 96-well plate. Fresh culture media (100 μL) was added to each well of cells resulting in 200 μL of medium per well followed by 2 μL of each test agent. Compounds were tested in duplicate (n=2-8 times) at six concentrations between 0-1000 nM or 0-10000 nM. Following the addition of compound, cultures were incubated for an additional 72 hours.
The plates were incubated at 37° C. for 5 minutes (L1210) or 15 min (HCT116 and HCT116/VM46). After the given incubation time, 50 μL of 0.1 N NaOH was added to each well and the absorption at 405 nm was determined using a 96 well plate reader. […]

Tubulin = settings: Table 9, displacement of tubulin bound BODIPY-vinblastine
Procedure: Control studies were performed with BODIPY-VBL in the absence of a competitive ligand (control 1, maximum FI enhancement) and in the absence of tubulin (control 2, no FI enhancement). Percent (%) BODIPY-VBL displacement was calculated by the formula: (control 1 FI−experiment FI)/(Control 1 FI−Control 2 FI)×100%. Reported values are the average of 5 measurements±SD.

Structure (SMILES)	IC50 (cells)	IC50 (L1210 [3])	IC50 (A549-T24)	IC50 (A549)	activity relative to free amine Compound 6 (more active) (HCT116 [1])	IC50 (HCT116 [1]; read-out: IC50 HCT116)	potency relative to vinblastine (less potent / reduced activity) (HCT116 [1])	IC50 (HCT116 [4])	differential in activity between sensitive and resistant HCT116 cell lines (HCT116/VM46)	IC50 (HCT116/VM46; read-out: IC50 HCT116/VM46)	IC50 (L1210 [2])	further results
CC[C@]1(NC(=O)c2ccc(OC)c(OC)c2)C[C@H]2CN(CCc3c([nH]c4ccc(F)cc34)[C@@](C(=O)OC)(c3cc4c(cc3OC)N(C)[C@H]3[C@@](O)(C(=O)OC)[C@H](OC(C)=O)[C@]5(CC)C=CCN6CC[C@]43[C@@H]65)C2)C1 [Compound 190]	0.06 to 0.08 nM	–	–	–	–	–	–	–	–	–	–	IC50 (HCT116 [1]; Table 8, 10′-F compounds, read-out: IC50 HCT116): 0.08 nM; IC50 (L1210 [2]; Table 8, 10′-F compounds): 0.06 nM
CCC1(NC=O)CC2CN(CCc3c([nH]c4ccccc34)C(C(=O)OC)(c3cc4c(cc3OC)N(C)C3C(O)(C(=O)OC)C(OC(C)=O)C5(CC)C=CCN6CCC43C65)C2)C1 (stereo not drawn) [Compound 9]	–	65 nM	0.7 nM	0.7 nM	10 fold	0.6 nM	approximately 10 fold	85 nM	~80 fold	7.5 nM	0.5 nM	–
CC[C@]1(NC(C)=O)C[C@H]2CN(CCc3c([nH]c4ccccc34)[C@@](C(=O)OC)(c3cc4c(cc3OC)N(C)[C@H]3[C@@](O)(C(=O)OC)[C@H](OC(C)=O)[C@]5(CC)C=CCN6CC[C@]43[C@@H]65)C2)C1 [Compound 10, 20′-Acetamidovinblastine]	–	65 nM	–	–	10 fold	–	approximately 10 fold	90 nM	~80 fold	–	–	–
CCC1(O)C[C@H]2CN(CCc3c([nH]c4ccc(F)cc34)[C@@](C(=O)OC)(c3cc4c(cc3OC)N(C)C3C(O)(C(=O)OC)[C@H](OC(C)=O)[C@]5(CC)C=CCN6CC[C@]43[C@@H]65)C2)C1 (stereo partly drawn) [Compound 187, 10′-fluorovinblastine, reference compound]	–	–	–	–	–	–	–	–	–	–	–	IC50 (A549-T24; Homo sapiens): < 8 nM; IC50 (A549; Homo sapiens, A549): 2.9 nM; IC50 (HCT116 [1]; Homo sapiens, HCT-116, Table 8, 10′-F compounds, read-out: IC50 HCT116): 0.7 nM; IC50 (HCT116 [1]; Homo sapiens, HCT-116, table b183, read-out: IC50 HCT116): 0.8 nM; improvement in activity over vinblastine (HCT116 [4]; recent work, Gotoh et al. 2011): ~10 fold; IC50 (L1210 [2]; Mus musculus, L1210, Table 8, 10′-F compounds): 0.6 nM; IC50 (L1210 [2]; Mus musculus, L1210, table b183): 0.7 nM
CC[C@]1(NC(=O)C(F)(F)F)C[C@H]2CN(CCc3c([nH]c4ccccc34)[C@@](C(=O)OC)(c3cc4c(cc3OC)N(C)[C@H]3[C@@](O)(C(=O)OC)[C@H](OC(C)=O)[C@]5(CC)C=CCN6CC[C@]43[C@@H]65)C2)C1 [Compound 11]	–	660 nM	–	–	–	–	–	690 nM	–	–	–	–
CCC1(NC(=O)c2ccc3c(c2)CCCO3)CC2CN(CCc3c([nH]c4ccccc34)C(C(=O)OC)(c3cc4c(cc3OC)N(C)C3C(O)(C(=O)OC)C(OC(C)=O)C5(CC)C=CCN6CCC43C65)C2)C1 (stereo not drawn) [Compound 173]	0.4 to 0.5 nM	–	0.8 nM	1.4 nM	–	0.5 nM	–	–	3.8 fold	1.8 nM	0.4 nM	IC50 (HCT116 [1]; Table 6, read-out: IC50 HCT116): 0.5 nM; IC50 (HCT116 [1]; Table 9, read-out: IC50 (nM, HCT116)): 0.5 nM; IC50 (HCT116 [1]; Table 10, read-out: IC50 (nM), HCT116): 0.5 nM; IC50 (HCT116/VM46; Table 6, read-out: IC50 HCT116/VM46): 1.8 nM; IC50 (HCT116/VM46; Table 10, read-out: IC50 (nM), HCT116/VM46): 1.8 nM; IC50 (HCT116/VM46; read-out: IC50 against resistant HCT116 cell line): 1.8 nM; % displacement (Tubulin): 98 ± 7%; IC50 (L1210 [2]; Table 6): 0.4 nM
